Drawing on ChEMBL document CHEMBL1201862, “PubChem BioAssay data set” (2004), this text covers EC50 and AC50 for 55 compounds.

Series [1] in a line: inhibitors of intracellular T. cruzi replication, confirmation, NIH3T3 host cells, beta-gal luminescence (AID 2044).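 Also: intracellular parasites grown in NIH/3T3 mouse fibroblasts as host cells; luminescent beta-galactosidase reporter signal from transgenic T. cruzi replicating inside host cells; inhibitors lower the luminescence signal.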 In kind it is functional, cell-based.
The nature of series [2]: cytotoxicity toward NIH3T3 fibroblasts, dose response, counter-screen, cell-based, ATP luminescence, mouse fibroblasts (AID 2010).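 Also: cells exposed to compound for about 90 hours before reading.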 The format is functional.
For the next series, the target named is Cytochrome P450 2C19 (Homo sapiens, UniProt P33261). Kind of series: Cytochrome panel assay with activity outcomes. Panel member name: p450-cyp2c19 Compounds with AC50 equal or less than 10 uM are considered active. The format is functional.
Cytochrome P450 2C19, sequence (P33261 whole entry): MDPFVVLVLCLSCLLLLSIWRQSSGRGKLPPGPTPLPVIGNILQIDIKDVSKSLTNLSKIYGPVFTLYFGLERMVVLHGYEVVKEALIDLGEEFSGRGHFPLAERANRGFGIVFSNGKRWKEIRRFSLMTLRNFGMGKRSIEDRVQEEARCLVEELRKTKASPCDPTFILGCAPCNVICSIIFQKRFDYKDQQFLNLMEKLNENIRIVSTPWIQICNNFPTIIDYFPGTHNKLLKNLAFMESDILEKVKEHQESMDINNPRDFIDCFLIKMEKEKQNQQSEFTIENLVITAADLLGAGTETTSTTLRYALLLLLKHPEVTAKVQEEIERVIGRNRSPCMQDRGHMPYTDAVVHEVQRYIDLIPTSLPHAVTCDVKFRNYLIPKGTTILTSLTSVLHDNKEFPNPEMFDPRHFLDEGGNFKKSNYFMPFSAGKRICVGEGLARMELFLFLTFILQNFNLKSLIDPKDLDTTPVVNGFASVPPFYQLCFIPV
The next series has as its target Cytochrome P450 2D6 (Homo sapiens, UniProt P10635).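 Also: CYP2D6 member of a cytochrome P450 panel assay.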
Series [3] can be described thus: inhibitors of firefly luciferase expression or activity, dose response, H4 neuroglioma cells, luminescence (AID 1990). The format is functional, cell-based.
The nature of series [4]: Luminescence Cell-Based Dose Response HTS to Identify Inhibitors of 5'UTR Stem-Loop Driven Prion Protein mRNA Translation in H4 Neuroglioblastoma Cells. [Related pubchem assays: 1827 (Project Summary), 1813 (Primary HTS)]. In kind it is functional.
Series [5] can be described thus: inhibitors of SNCA 5'UTR-driven reporter translation, confirmation, H4 neuroglioma cells, luminescence (AID 1988). In kind it is functional, cell-based.
The next series has as its target T1, Cytochrome P450 1A2 (Homo sapiens, UniProt P05177).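 Also: PubChem cytochrome P450 panel assay, CYP1A2 panel member.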
T1 sequence (P05177 whole entry): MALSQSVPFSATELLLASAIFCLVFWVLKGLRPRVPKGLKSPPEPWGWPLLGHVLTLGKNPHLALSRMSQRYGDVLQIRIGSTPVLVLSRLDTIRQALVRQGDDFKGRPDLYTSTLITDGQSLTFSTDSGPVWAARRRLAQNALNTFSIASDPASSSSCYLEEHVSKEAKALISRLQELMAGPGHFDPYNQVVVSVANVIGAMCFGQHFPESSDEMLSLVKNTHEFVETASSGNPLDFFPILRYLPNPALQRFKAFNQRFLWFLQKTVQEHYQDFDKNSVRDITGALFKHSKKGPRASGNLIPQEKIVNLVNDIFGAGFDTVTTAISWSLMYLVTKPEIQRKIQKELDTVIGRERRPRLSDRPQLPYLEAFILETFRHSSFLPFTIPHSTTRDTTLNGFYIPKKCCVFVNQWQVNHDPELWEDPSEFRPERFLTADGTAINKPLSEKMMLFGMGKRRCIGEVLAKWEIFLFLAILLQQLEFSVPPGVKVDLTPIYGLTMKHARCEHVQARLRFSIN

The next series has as its system Streptococcus. Description: Group A Streptococcus viability loss, dose response, counter-screen for streptokinase expression inhibitor project, luminescence, BacTiterGlo (AID 1915).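 Also: potency for reduction of bacterial viability or growth.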 The format is functional, organism-based.
For series [6], the system named is Streptococcus sp. 'group A'. Description: growth inhibition of control SK(-) GAS strain, dose response, counter-screen for streptokinase expression inhibitor project, luminescence, kanamycin, BacTiterGlo, confirmation (AID 1900). The format is functional, organism-based.

In general, EC50 refers to the concentration giving half of the maximal effect. The term AC50 denotes the midpoint of the concentration-response curve, whichever way the signal moves.

The source made the active and inactive calls.

Cytochrome P450 2D6, sequence (P10635 whole entry): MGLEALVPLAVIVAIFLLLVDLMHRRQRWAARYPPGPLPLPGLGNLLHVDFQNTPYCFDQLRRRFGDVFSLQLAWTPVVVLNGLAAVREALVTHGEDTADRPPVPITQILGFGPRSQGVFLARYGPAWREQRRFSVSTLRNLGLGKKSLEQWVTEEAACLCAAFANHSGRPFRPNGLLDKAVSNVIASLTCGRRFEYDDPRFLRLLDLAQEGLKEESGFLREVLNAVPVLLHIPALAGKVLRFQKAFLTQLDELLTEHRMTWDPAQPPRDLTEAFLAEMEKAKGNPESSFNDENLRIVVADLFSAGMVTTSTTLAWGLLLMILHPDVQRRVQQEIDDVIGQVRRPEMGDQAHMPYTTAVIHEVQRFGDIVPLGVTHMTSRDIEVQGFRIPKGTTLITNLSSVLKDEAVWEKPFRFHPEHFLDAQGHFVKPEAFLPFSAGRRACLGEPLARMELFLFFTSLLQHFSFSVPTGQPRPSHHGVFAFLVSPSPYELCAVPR

As for `O=C(CSc1ncnc2c1nnn2Cc1ccc(F)cc1)NC1CCCCC1`, the figures for the EC50 in series [1] and in series [2] were 4.08 µM (active) and > 60 µM (not active), respectively. Turning to `CO[C@@H]1COC(=O)[C@H]2CCCN2C(=O)[C@@H](C)COC(=O)CCC[C@H]1C`, on Cytochrome P450 2C19, the AC50 entry is recorded as “inconclusive”. Take `CCc1nnc(NC(=O)CCC(=O)NCc2ccccc2OC)s1`: the AC50 at Cytochrome P450 2D6 was 17.8 µM (inconclusive). On to `O=C(Cn1cc(C(F)(F)F)ccc1=O)N/N=C/c1cccc(Cl)c1Cl`, for which the EC50 in series [3], in series [4] and in [5] was > 120 µM (not active) in each case. Regarding `OC[C@@H]1O[C@H](n2cnc3c(/C=C(\O)c4ccccc4)ncnc32)[C@H](O)[C@@H]1O`, the AC50 at Cytochrome P450 1A2 is 0.501 µM (inconclusive). Turning to `CC(C)n1c2ccccc2c2cc([N+](=O)[O-])ccc21`, the EC50 was 14.8 µM (active) in series [3], > 120 µM (not active) in series [4] and 34.3 µM (active) in series [5]. `O=c1cnc2cnc(OCc3ccccc3)nc2n1Cc1ccc(F)cc1`: the AC50 at Cytochrome P450 2C19 (read-out: AC50) is 25.1 µM (inconclusive); at Cytochrome P450 2D6 it was 39.8 µM (inconclusive). On to `CCN1CCN(c2nc(-c3ccncc3)nc3ccccc23)CC1`, for which the results for the EC50 in series [1] and in series [2] were 1.23 µM (active) and > 60 µM (not active), respectively. Turning to `COc1ccc(CC(=O)NCCN2CCCC2)cc1`, the AC50 at Cytochrome P450 2D6 is 28.2 µM (inconclusive). As to `Cc1sc2ncn(CC(=O)NCCCC(=O)N3CCN(c4ncccn4)CC3)c(=O)c2c1C`, on Cytochrome P450 2C19 (read-out: AC50), the concentration at half-maximal activity (AC50) is 25.1 µM (inconclusive). For the compound `CCCCN(C)CCCNC(=O)c1ccc(N2CCCC2=O)cc1`, the AC50 on Cytochrome P450 1A2 is 0.126 µM (inconclusive). Turning to `O=C(c1c[nH]c(C(=O)N2CCN(c3ccccc3F)CC2)c1)c1cccc(Cl)c1Cl`, the figures for the EC50 in series [1] and in series [2] were 2.69 µM (active) and 2.1 µM (active), respectively.

With `OCC1(CCCc2ccccc2)CCN(Cc2cnc(N3CCOCC3)s2)CC1`, the EC50 in series [1] is 1.2 µM (active); in series [2], > 60 µM (not active). Regarding `COc1ccc(C)cc1NC(=O)CSc1nnc(-c2ccc(OC)c(OC)c2)n1N`, the AC50 is 28.2 µM (inconclusive) on Cytochrome P450 2C19 (read-out: AC50) and 11.2 µM (inconclusive) at Cytochrome P450 1A2. Take `O=C(NC(Cc1c[nH]c2ccccc12)c1nnc2n1CCCCC2)c1ccccc1` (stereo not drawn): the AC50 at Cytochrome P450 2C19 (read-out: AC50) was 17.8 µM (inconclusive). Consider `CN(C)c1ccc(-c2ccc3ncnc(N(C)Cc4ccco4)c3c2)cc1`, for which the AC50 at Cytochrome P450 2D6 is 25.1 µM (inconclusive). Consider `CCOC(=O)c1c(NC(=O)CN2CCCCC2)sc(CN(C)C)c1-c1ccccc1`, for which the EC50 is 1.11 µM (active) in series [1] and > 30 µM (not active) in series [2].

As for `Cn1c(=O)c2nc(CSCc3ccccc3)[nH]c2n(C)c1=O`, the AC50 entry on Cytochrome P450 2C19 was “inconclusive”. As to `N#CC(C#N)=CNCCN1CCN(C=C(C#N)C#N)CC1`, the AC50 result at Cytochrome P450 2C19 is listed as “inconclusive”. With `COc1cccc(Cn2c(=O)c(C)nc3cnc(OCc4ccccc4)nc32)c1`, at Cytochrome P450 2D6, the AC50 was 20 µM (inconclusive).

For `O=C(N/N=C/c1cc2c(cc1Br)OCO2)c1c[nH]c2ccccc12`, the EC50 in [1] is 2.52 µM (active); in series [2], > 60 µM (inconclusive). Turning to `Cc1oc(-c2ccccc2F)nc1CS(=O)(=O)CC(=O)NCCCN(C)C1CCCCC1`, the AC50 at Cytochrome P450 2D6 is 15.8 µM (inconclusive). As to `CSc1cccc(NC(=S)N(Cc2ccc(C)cc2)Cc2ccccn2)c1`, the results for the EC50 in [1] and in series [2] were 0.483 µM (active) and > 60 µM (not active), respectively. As to `C[C@H](N)c1cccc(Cl)c1Cl`, on Cytochrome P450 2D6, the AC50 is 31.6 µM (inconclusive).

For the compound `CCCCSc1nnc(-c2ccc(C)cc2)n1C`, at Cytochrome P450 1A2, the AC50 is 28.2 µM (inconclusive). For the compound `NC(=O)c1cccc(N)c1` [3-AMINOBENZAMIDE], the AC50 on Cytochrome P450 1A2 is 39.8 µM (inconclusive); on Cytochrome P450 2D6, 20 µM (inconclusive). For `CN(C)C(=O)c1ccc(-c2nc(N(C)Cc3ccco3)c3ccccc3n2)cc1`, the AC50 was 31.6 µM (inconclusive) at Cytochrome P450 2C19 (read-out: AC50) and 39.8 µM (inconclusive) at Cytochrome P450 2D6. Regarding `Cc1cc(C)c(S(=O)(=O)Nc2ccccc2C(F)(F)F)c(C)c1`, the AC50 on Cytochrome P450 1A2 is 31.6 µM (inconclusive). Regarding `N=c1c2c(-c3ccccc3)c(-c3ccccc3)n(Cc3ccco3)c2ncn1CCCO`, the EC50 in series [1] is 1.33 µM (active); in series [2] it was 11.3 µM (active). Consider `COc1ccc(NC(=O)CC2C(=O)N(CCc3ccccc3)C(=S)N2Cc2cccnc2)cc1` (stereo not drawn), for which the EC50 in series [1] is 2.03 µM (active); in series [2], > 60 µM (inconclusive). In the case of `O=C(Nc1ccccc1)N(Cc1ccccc1)CC(O)C(F)(F)F` (stereo not drawn), the concentration at half-maximal activity (AC50) at Cytochrome P450 1A2 was 17.8 µM (inconclusive).

Consider `CCOc1ccccc1NC(=O)c1cc(-c2ccncc2)nc2c(Cl)cccc12`, for which the EC50 in series [1] is 1.97 µM (active); in [2] it was 21.2 µM (active).

With `Cc1cc(C)c(S(=O)(=O)c2ccccc2C)c(Cl)n1`, the EC50 is 2.05 µM (active) in series [1] and > 60 µM (not active) in [2]. For `O=C(CN1C2=NCCCN2c2ccccc21)c1ccc([N+](=O)[O-])cc1`, the EC50 in series [1] was 0.436 µM (active); in [2], > 60 µM (not active). As to `Cc1ccccc1Cn1cnc2c(cnn2C(C)(C)C)c1=O`, the half-maximal activity concentration (AC50) at Cytochrome P450 2D6 is 35.5 µM (inconclusive). For the compound `Cc1nc(SCC(=O)Nc2c(C)nn(C)c2C)c2cnn(-c3ccccc3)c2n1`, the AC50 on Cytochrome P450 2C19 (read-out: AC50) was 28.2 µM (inconclusive).

As for `COc1ccc(-c2nnc(CSc3nnc(-c4ccncc4)n3C3CCCCC3)o2)cc1OC`, the EC50 in [3] is 16.3 µM (active); in [4], > 120 µM (not active); in series [5] it was 39.4 µM (active). Regarding `O=C(Nc1ccc([N+](=O)[O-])cc1)C(Cc1ccccc1)N1C(=O)c2cccc3cccc(c23)C1=O` (stereo not drawn), the EC50 in series [3], in series [4] and in [5] was > 120 µM (not active) throughout.

With `CN(C(=O)CSc1nc(O)c(C#N)c(-c2ccc(C(C)(C)C)cc2)n1)C1CCCCC1`, the EC50 in the series with Streptococcus was 20.3 µM (active). As for `O=C(O)COc1ccccc1/C=N/NC(=O)c1cc2ccccc2cc1O`, the EC50 in [3] is > 120 µM (not active); in [4], > 120 µM (not active); in series [5], 18.7 µM (active). On to `CCOC(=O)c1[nH]c(Cc2[nH]c(C(=O)OCC)c(C)c2CCC(=O)OC)c(CCC(=O)OC)c1C`, for which the EC50 in series [3] is > 120 µM (not active); in [4] it was 21.2 µM (active); in series [5], 12.1 µM (active). With `COc1cc(O)nc(SCc2c(F)c(F)c(F)c(F)c2F)n1`, the EC50 in [3] was > 120 µM (not active); in [4], 13.9 µM (active); in [5] it was 66.4 µM (active). Turning to `CC(C)c1cc(CN(C)C)c(O)c(C(C)(C)C)c1`, the AC50 at Cytochrome P450 2D6 was 6.31 µM (inconclusive). As for `COc1ccccc1C(=O)C1CCCN(Cc2ccc(Oc3ncccn3)cc2)C1` (stereo not drawn), the EC50 in series [1] is 0.178 µM (active); in [2] it was > 60 µM (not active). Consider `CCC(=O)Nc1nc2ccc([N+](=O)[O-])cc2s1`, for which the EC50 in series [1] was 0.241 µM (active); in series [2] it was > 60 µM (not active). Consider `Cc1cc(C)c[n+](CC(=O)c2cc3ccccc3oc2=O)c1`, for which the AC50 on Cytochrome P450 1A2 was 22.4 µM (inconclusive); on Cytochrome P450 2D6 it was 11.2 µM (inconclusive).

`O=C(NNC(=S)NC(=O)c1cccc([N+](=O)[O-])c1)c1ccc(Br)cc1`: the EC50 in [6] was 1.14 µM (active); with Streptococcus, 6.56 µM (active). With `CC(C)CN(C(=O)COC(=O)c1c(Cl)ccc(Cl)c1Cl)C1CCS(=O)(=O)C1` (stereo not drawn), the EC50 in series [3], in series [4] and in series [5] was > 120 µM (not active) in each case. For `Oc1c[n+](CCCC[n+]2cc(O)on2)no1`, the AC50 result at Cytochrome P450 2C19 is listed as “inconclusive”.

For the compound `O=C(Nc1nc2c(F)cc(F)cc2s1)C1CC1`, the results for the EC50 in series [1] and in series [2] were 0.305 µM (active) and > 60 µM (not active), respectively. `O=C(NCC1CCCO1)/C(=C\c1ccco1)NC(=O)c1ccccc1` (stereo not drawn): the AC50 on Cytochrome P450 1A2 is 14.1 µM (inconclusive).

As to `CN(Cc1ccco1)c1ccnc(-c2ccccc2C(F)(F)F)n1`, at Cytochrome P450 2D6, the AC50 is 25.1 µM (inconclusive).

For the compound `COc1ccc(CNc2ncnc3ccc(-c4cccnc4)cc23)c(OC)c1`, on Cytochrome P450 2C19 (read-out: AC50), the AC50 was 31.6 µM (inconclusive). Take `O=C(NC1CCCCCC1)c1cccs1`: the concentration at half-maximal activity (AC50) on Cytochrome P450 2C19 (read-out: AC50) was 3.98 µM (inconclusive); at Cytochrome P450 2D6, 12.6 µM (inconclusive). `Cc1ccc(-n2ncc3c2ncn2nc(-c4ccco4)nc32)c(C)c1`: the AC50 at Cytochrome P450 2C19 (read-out: AC50) was 17.8 µM (inconclusive).
